From EP1200455B1, “ENZYME CATALYZED THERAPEUTIC ACTIVATION” (Celmed Oncology (USA), Inc., priority 1999, dated 2001)
Each block holds one molecule with its values, some of them ahead of it.

Tests used:
[1] = system: Tumor Cells; experiment: AlamarBlue cell proliferation (cytotoxicity) assay, mean over tumor cells; format: cell-based; conditions: for mean IC30 over tumor cell lines: alamarBlue, mean of the MCF7TDX, H630R10 and HT1080 (µM); for activity (in words, summary of Tables 5 and 6): text comment on the cytotoxicity data
Procedure: (§1) Cells growing exponentially were transferred to 384-well flat bottom tissue culture plates. […] After 24 hours (day 0), 25 µL of complete medium containing the compounds over the dose range of 10^-3 to 10^-10 M were added in triplicate. Drug exposure time was 120 hours (day 5), after which growth inhibition was assayed. 5 µL of the redox indicator, alamarBlue, was added to each well (10% v/v).
(§2) Numbering in Tables 5 and 6 refer to the structures, shown infra. […] MCF7-TDX was derived from MCF7 breast tumor cells via selection in cell culture in the presence of Tomudex, a direct inhibitor of TS. […] Similarly, H630R10 is a 5FU (fluoropyrimidine) resistant colon cancer epithelial cell line derived from H630 colon cancer cells. […] HT1080, #12, is a fibrosarcoma tumor cell line that expresses high levels ofTS via a transgene introduced into HT1080 tumor cells. Normal cell lines used in these assays include CCD180co (normal colon epithelium) and Det551 (normal skin).

[2] = system: HT1080; experiment: AlamarBlue cell proliferation (cytotoxicity) assay; format: cell-based; conditions: dose range 10^-3 to 10^-10 M
Procedure: as §1, §2

[3] = system: Normal Cells; experiment: AlamarBlue cell proliferation (cytotoxicity) assay, mean over normal cells; format: cell-based, human; conditions: mean of CCd18co and Det551 (µM)
Procedure: as §1, §2

[4] = system: CCd18co; experiment: AlamarBlue cell proliferation (cytotoxicity) assay; format: cell-based, human; conditions: 120 hours drug exposure, normal colon epithelium cells
Procedure: as §1, §2

[5] = system: MCF7TDX; experiment: AlamarBlue cell proliferation (cytotoxicity) assay; format: cell-based, human; conditions: 120 hours drug exposure, dose range 10^-3 to 10^-10 M
Procedure: as §1, §2

[6] = system: Det551; experiment: AlamarBlue cell proliferation (cytotoxicity) assay; format: cell-based, human; conditions: 120 hours drug exposure, normal skin cells
Procedure: as §1, §2

[7] = system: H630R10; experiment: AlamarBlue cell proliferation (cytotoxicity) assay; format: cell-based, human; conditions: 120 hours drug exposure, dose range 10^-3 to 10^-10 M
Procedure: as §1, §2

[8] = system: Tumor Cells; experiment: Crystal violet cell proliferation inhibition assay, mean over tumor cells; format: cell-based
Procedure: (§3) Compound concentrations from 1 µM to 3000 µM were tested.
as §2

[9] = system: HT1080 # 12; experiment: Crystal violet cell proliferation inhibition assay; format: cell-based; conditions: high TS via transgene
Procedure: as §3, §2
(§4) Table 7. Cytotoxic Activity of NB1024 Isomers

[10] = system: H630R10; experiment: Crystal violet cell proliferation inhibition assay; format: cell-based, human; conditions: 72 hours incubation
Procedure: as §3, §2

[11] = system: Normal Cells; experiment: Crystal violet cell proliferation inhibition assay, mean over normal cells; format: cell-based, human; conditions: mean of the CCD18co and Det551 columns
Procedure: as §3, §2

[12] = system: H630R10 (5-FU resistant colon cancer cell line)
Procedure: (§5) 100 µM of BVdU was added to each dish and the cells continued to grow for 2 days at 37°C. After that, the medium was aspirated and the cells were washed twice with phosphate buffered saline (PBS). Then 1 ml of PBS per dish was added and the dishes were placed in a -80°C freezer. The cells were disrupted via freezing/thawing procedure, repeated twice. The cell debris in the resulting suspension were spun down (13,000 rpm,10 minutes) and the supernatant was deproteinized by passing though a Centrifugal Filter Device (Centrifree, 30,000 cut-off, Amicon) by centrifugation at 5,000 rpm for 30 minutes on Sorvall Super T21 centrifuge (Rotor SL-50-T, 1,912 g) at 20°C. The pass-through was concentrated to the volume of 100 µl, and injected onto an HPLC column (Adsorbosphere HS, C18, 5 µm, 4.6 mm x 150 mm, Alltech). The samples were analyzed using acetonitrile gradient in water containing trifluoroacetic acid. The peaks were detected at 300 mm the maximum of absorption of BVdU-derivatives, and the amounts of compounds were expressed as peak area at 300 nm. […]
(§6) The amounts of reference compounds BVdUMP or BVdU present in lysates call lines MCF7, MCF7TDX, and H630R10 each treated with BVdU, are expressed as an area of a corresponding HPLC peak at 300 nm. […]
(§7) Cells were incubated in complete media with 100 µm BVdU. Lysates were prepared and BVdUMP and BVdU levels were determined.

[13] = system: MCF7 (breast cancer cell line)
Procedure: as §5, §6, §7

[14] = system: MCF7TDX (Tomudex resistant breast cancer cell line)
Procedure: as §5, §6, §7

[15] = system: H630R10 (5-FU resistant colon cancer cell line); experiment: Amount of nucleoside and monophosphate in cells (HPLC of lysates after BVdU treatment); conditions: 2 days treatment with 100 µm BVdU
Procedure: as §5, §6, §7

[16] = system: CCd18co; experiment: Crystal violet cell proliferation inhibition assay; format: cell-based; conditions: Homo sapiens, CCD-18Co, 72 hours incubation, normal colon epithelium cells
Procedure: as §3, §2, §4

[17] = system: Det551; experiment: Crystal violet cell proliferation inhibition assay; format: cell-based; conditions: Homo sapiens, 72 hours incubation, normal skin cells
Procedure: as §3, §2, §4

[18] = Homo sapiens, HT-1080, 120 hours drug exposure

Molecule: COC(=O)C(C)NP(=O)(OCC1OC(n2ccc(=O)[nH]c2=O)CC1O)Oc1ccccc1 (centres unmarked) [NB1025]
- mean IC30 over tumor cell lines [1]: 232 µM
- activity (in words, summary of Tables 5 and 6) [1]: active
- IC30 ([2]; 120 hours drug exposure): 454 µM
- IC50 [3]: 378 µM
- IC50 [4]: 378 µM
- IC30 [5]: 49 µM

Molecule: COC(=O)[C@H](C)NP(=O)(OC[C@H]1O[C@@H](n2cc(/C=C/Cl)c(=O)[nH]c2=O)C[C@@H]1O)Oc1ccccc1 (some centres unmarked) [NB1013]
- mean IC30 over tumor cell lines [1]: 59 µM
- IC50 [3]: 570 µM
- IC30 [5]: 26 µM
- IC50 [6]: 570 µM
- IC30 [7]: 92 µM

Molecule: O=c1[nH]c(=O)n([C@H]2C[C@H](O)[C@@H](CO)O2)cc1C=CCl [NB1020, 5-(2-chlorovinyl)-2'-deoxyuridine]
- mean IC30 over tumor cell lines ([1]; Homo sapiens, HT-1080): 442 µM
- IC30 [2, 18]: 1000 µM
- IC50 ([3]; Homo sapiens, CCD-18Co): 1000 µM
- IC50 ([4]; Homo sapiens, CCD-18Co): 1000 µM
- IC30 ([5]; Homo sapiens): 0.48 µM
- IC30 ([7]; Homo sapiens): 326 µM

Molecule: COC(=O)C(C)NP(=O)(OCC1OC(n2cc(C(F)(F)F)c(=O)[nH]c2=O)CC1O)Oc1ccccc1 (centres unmarked) [NB1014]
- mean IC30 over tumor cell lines [1]: 342 µM
- IC50 [3]: 139 µM
- IC30 [5]: 396 µM
- IC50 [6]: 239 µM
- IC30 [7]: 287 µM

Molecule: O=c1ccn(C2CC(O)C(CO)O2)c(=O)[nH]1 (centres unmarked) [NB1026]
- activity (in words, summary of Tables 5 and 6) [1]: little detectable activity
- IC30 ([2]; 120 hours drug exposure): 1000 µM
- IC30 [5]: 1000 µM
- IC30 [7]: 1000 µM

Molecule: 5-(2-Bromovinyl)-2'-Deoxyuridine Phenyl N-Methoxy-L-alaninyl Phosphoramidate [NB1011]
- IC50 ([8]; mean of the H630R10 and HT1080 # 12 columns (uM)): 65.6 µM
- IC50 ([9]; 72 hours incubation): 1.2 µM
- mean IC30 over tumor cell lines [1]: 88.7 µM
- IC50 [10]: 130 µM
- IC30 ([2]; 120 hours drug exposure): 182 µM
- IC50 [11]: 382 µM
- IC50 [3]: 406 µM
- IC50 [4]: 414 µM
- IC30 [5]: 2 µM
- IC50 [6]: 398 µM
- IC30 [7]: 82 µM

- amount present in cell lysate, expressed as area of the HPLC peak at 300 nm [12]: < 1
- amount present in cell lysate, expressed as area of the HPLC peak at 300 nm [13]: 63.7
- amount present in cell lysate, expressed as area of the HPLC peak at 300 nm [14]: 10.9
Molecule: O=c1[nH]c(=O)n([C@H]2C[C@H](O)[C@@H](COP(=O)(O)O)O2)cc1/C=C/Br [BVdUMP]

Molecule: O=c1[nH]c(=O)n([C@H]2C[C@H](O)[C@@H](CO)O2)cc1/C=C/Br [BVdU, (E)-5-(2-Bromovinyl)-2'-deoxyuridine, reference compound]
- IC50 ([8]; Homo sapiens, HT-1080, mean of the H630R10 and HT1080 # 12 columns (uM)): 206 µM
- BvdUMP/(BVdUMP + BVdU) x100 [15]: < 4
- IC50 [16]: 1000 µM
- IC50 [17]: 625 µM
- IC50 ([9]; Homo sapiens, HT-1080, 72 hours incubation): 7 µM
- mean IC30 over tumor cell lines ([1]; Homo sapiens, HT-1080): 307 µM
- IC50 ([10]; Homo sapiens): 405 µM
- IC30 [2, 18]: 719 µM
- IC50 ([11]; Homo sapiens, CCD-18Co): 812 µM
- IC50 ([3]; Homo sapiens, CCD-18Co): 1000 µM
- IC50 ([4]; Homo sapiens, CCD-18Co): 1000 µM
- IC30 ([5]; Homo sapiens): 0.02 µM
- IC30 ([7]; Homo sapiens): 201 µM
